These results are taken from patent US8563557B2, “Pyrimidine derivatives and their pharmaceutical use” (University Court of the University of Dundee, priority 2008, dated 2013).

Data set [1] concerns p53 and acetylated p53 in MCF-7 breast adenocarcinoma cells. In words: Expression of p53 and acetylated p53 in MCF-7 cells treated with compound, with etoposide (FIG. 3). It is filed as cell-based. As for the experimental part: Additionally, cells were treated with the same compounds in the presence of the genotoxic agent etoposide.
(§1) Further evidence to support the selective targeting of SIRT1 and SIRT2 by these analogs came from studies in cells.

The subject of data set [2] is acetylated α-tubulin in H1299 cells. In words: Acetylated tubulin levels in H1299 cells treated with compound and Trichostatin A (FIG. 2). The data set is classed as cell-based. The settings on record: for acetylation of tubulin: H1299 cells, with Trichostatin A.
From the text: Total tubulin was used as a loading control.
as §1

The next data set has as its target T1, SIRT2 (Homo sapiens, UniProt Q8IXJ6).
T1 sequence (Q8IXJ6 1-389): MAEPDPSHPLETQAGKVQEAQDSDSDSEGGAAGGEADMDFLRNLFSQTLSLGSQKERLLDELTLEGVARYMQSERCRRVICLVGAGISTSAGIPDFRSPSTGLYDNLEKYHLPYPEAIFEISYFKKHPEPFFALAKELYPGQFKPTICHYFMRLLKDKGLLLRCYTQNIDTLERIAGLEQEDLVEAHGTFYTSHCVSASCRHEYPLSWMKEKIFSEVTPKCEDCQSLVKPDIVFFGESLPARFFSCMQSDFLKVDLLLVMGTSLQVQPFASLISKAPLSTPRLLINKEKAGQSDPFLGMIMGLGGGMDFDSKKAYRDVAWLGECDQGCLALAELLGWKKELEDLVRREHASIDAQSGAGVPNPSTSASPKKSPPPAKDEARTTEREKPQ
Nature of the data set: In vitro inhibition of SIRT2 by cambinol analogs. The conditions noted are these: for inhibition at 60 µM: read-out: Inhibition at 60 μM ± SE (%) SIRT2.

Another data set concerns the target T2, SIRT1 (Homo sapiens, UniProt Q96EB6).
T2 sequence (Q96EB6 1-747): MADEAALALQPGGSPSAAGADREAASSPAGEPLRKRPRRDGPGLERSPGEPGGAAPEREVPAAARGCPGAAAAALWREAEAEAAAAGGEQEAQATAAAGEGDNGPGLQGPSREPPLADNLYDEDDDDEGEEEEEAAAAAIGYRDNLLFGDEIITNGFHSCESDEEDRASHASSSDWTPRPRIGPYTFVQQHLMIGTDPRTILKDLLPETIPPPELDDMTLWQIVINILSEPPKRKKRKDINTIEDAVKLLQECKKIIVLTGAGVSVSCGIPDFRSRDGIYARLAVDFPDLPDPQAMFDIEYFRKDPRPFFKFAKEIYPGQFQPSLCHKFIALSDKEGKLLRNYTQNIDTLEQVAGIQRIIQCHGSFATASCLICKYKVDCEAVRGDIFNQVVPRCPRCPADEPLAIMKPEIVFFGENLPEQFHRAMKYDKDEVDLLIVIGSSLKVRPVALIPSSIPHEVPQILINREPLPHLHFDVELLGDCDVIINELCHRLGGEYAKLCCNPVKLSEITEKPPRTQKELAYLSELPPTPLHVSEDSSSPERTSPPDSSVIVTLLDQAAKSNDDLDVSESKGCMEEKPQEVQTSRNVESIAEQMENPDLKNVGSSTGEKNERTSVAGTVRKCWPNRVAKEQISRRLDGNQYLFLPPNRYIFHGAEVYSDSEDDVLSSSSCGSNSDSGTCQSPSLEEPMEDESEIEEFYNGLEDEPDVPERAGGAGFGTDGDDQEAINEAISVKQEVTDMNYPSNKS
Nature of the data set: In vitro inhibition of SIRT1 by cambinol analogs. The conditions noted are these: for inhibition at 60 µM: read-out: Inhibition at 60 μM ± SE (%) SIRT1.

For data set [3], the system named is p53 and acetylated p53 in NCl H460 cancer cells. The conditions noted are these: etoposide (10 μM); cited from earlier work.
The mark [4] stands for this setting: in the presence of etoposide (10 μM).

Broadly, the inhibition is the share of the control response that was lost under treatment. The melting point is the temperature of the solid-liquid transition. By IC50 is commonly meant the concentration that inhibits the measured activity by half.

Entries after “also recorded” stand apart in the source; their conditions may differ.

On to `O=c1[nH]c(=S)[nH]c(-c2ccc(Br)cc2)c1Cc1c(O)ccc2ccccc12` [Compound 6b, 6-(4-Bromo-phenyl)-5-(2-hydroxy-naphthalen-1-ylmethyl)-2-thioxo-2,3-dihydro-1H-pyrimidin-4-one], for which the melting point was 282 to 287 °C. Further, the “levels of p53” value in data set [1] (setting [4]) is listed as “increased p53 levels”. In addition, the “levels of p53 acetylated at lysine 382” value in data set [1] (in the presence of etoposide, compared to cambinol (1)) is listed as “clear increase in potency compared to cambinol (1)”. For the same molecule, the acetylation of tubulin result in data set [2] is “did not lead to an increase in acetylation of tubulin”. Moreover, the “activity against SIRT2 in words” value on SIRT2 (compared with cambinol (1)) was “relative lack of activity”. Moreover, at SIRT2, the inhibition at 60 µM was found to be 9.4 ± 1%. For the same molecule, the “improvement in activity against SIRT1 compared with cambinol (1)” value at SIRT1 (from IC50 values) is 4 fold. Besides, the “selectivity for SIRT1 over SIRT2 in words” value at SIRT1 (in vitro) is listed as “relatively selective inhibition of SIRT1; also recorded: selective SirT1 inhibitor”. On SIRT1 (read-out: IC50 SIRT1, repeated at least two times), the IC50 was determined as 12.7 ± 2 µM. Besides, on SIRT1, the inhibition at 60 µM turned out to be 82.3 ± 1%.

Turning to `CCCn1c(-c2ccccc2)c(Cc2c(O)ccc3ccccc23)c(=O)[nH]c1=S` [Compound 6h, 5-(2″-Hydroxy-naphthalen-1-ylmethyl)-6-phenyl-1-propyl-2-thioxo-2,3-dihydro-1H-pyrimidin-4-one], the melting point was in the range of 227 to 229 °C. In addition, in data set [2], the acetylation of tubulin result is reported as “significant increase in the levels of acetylated tubulin”. For the same molecule, the “cell permeability in words” value in data set [2] (concluded from acetylated tubulin increase in cells) is “cell-permeable”. The “selectivity for SIRT2 over SIRT1 in words” value on SIRT2 (in vitro) is on record as “SIRT2 selective inhibitor”. Moreover, the IC50 at SIRT2 (read-out: IC50 SIRT2, repeated at least two times) came out at 4.8 ± 2 µM. Also, the inhibition at 60 µM at SIRT2 worked out at 94.7 ± 1%. For the same molecule, the inhibition at 60 µM at SIRT1 turned out to be 25 ± 2%.

For `O=c1[nH]c(=S)[nH]c(-c2ccccc2)c1Cc1c(O)ccc2ccccc12` [Compound 1, 5-(2″-Hydroxy-naphthalen-1-ylmethyl)-6-phenyl-2-thioxo-2,3-dihydro-1H-pyrimidin-4-one, reference compound], in data set [1] (setting [4]), the “concentration at which maximal p53 levels were observed” value is 50 µM and the “levels of p53” value is recorded as “increased”. Moreover, the “levels of p53 and acetylated p53” value in data set [3] is “higher levels of p53 and acetylated p53”.
